The target in one experiment is T1, human CYP11B2 (Homo sapiens, UniProt P19099).
T1 construct: expressed in transfected cells; host or cells: V79 Chinese hamster cells
T1 sequence (P19099 25-503): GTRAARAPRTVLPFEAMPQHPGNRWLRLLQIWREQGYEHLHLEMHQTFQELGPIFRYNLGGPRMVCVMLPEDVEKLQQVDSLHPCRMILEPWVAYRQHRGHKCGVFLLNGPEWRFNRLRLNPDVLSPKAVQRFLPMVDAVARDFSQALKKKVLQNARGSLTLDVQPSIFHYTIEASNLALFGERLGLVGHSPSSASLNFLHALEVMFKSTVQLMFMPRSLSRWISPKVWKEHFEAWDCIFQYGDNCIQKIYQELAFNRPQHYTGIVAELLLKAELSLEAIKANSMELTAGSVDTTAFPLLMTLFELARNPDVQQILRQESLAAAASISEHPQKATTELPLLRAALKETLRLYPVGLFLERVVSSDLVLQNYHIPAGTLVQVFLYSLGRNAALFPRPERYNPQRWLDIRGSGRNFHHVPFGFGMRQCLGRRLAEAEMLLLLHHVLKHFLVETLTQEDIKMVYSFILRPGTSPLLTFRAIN
Nature of the experiment: Inhibitor potency for human CYP11B2 in V79 cells expressing the enzyme (HPLC steroid analysis). The class given is cell-based. The note with it: for Ratio: Ratio = IC50 CYP11B1/ IC50 CYP11B2 (selectivity); for IC50: V79 cells stably (over)expressing human CYP11B2, 1 hour with inhibitor, then 11-deoxycorticosterone 500 nM for three hours, read-out: IC50 11B2. The procedure: (§1) Inhibitor potencies for human CYP11B1 and CYP11B2 were determined in an in vitro assay using V79 cells in which human CYP11B1 or CYP11B2 are expressed.
The V79 cells stably (over)expressing human CYP11 B2 were developed in the laboratory of Prof. Rita Bernhardt, Institute of Biochemistry, Saarland University, Saarbrücken, Germany : • Denner K, Doehmer J,Bernhardt R. "Cloning of CYP11B1 and CYP11B2 from normal human adrenal and their functional expression in COS-7 and V79 Chinese hamster cells" Endocr Res 1995;21:443-8; • Bottner B, Denner K, Bernhardt R "Conferring aldosterone synthesis to human CYP11B1 by replacing key amino acid residues with CYP11B2 ones", Eur. J. Biochem. 1998; 252: 458-466; • Denner K, Vogel R, Schmalix W, Doehmer J, Bernhardt R.: "Cloning and stable expression of the human mitochondrial cytochrome P45011B1 cDNA in V79 Chinese hamster cells and their application for testing of potential inhibitors." Pharmacogenetics 1995; 5: 89-96; • Denner K, Bernhardt R. "Inhibition studies of steroid conversions mediated by human CYP11B1 and CYP11B2 expressed in cell cultures". In: Oxygen Homeostasis and Its Dynamics. Springer-Verlag, Tokyo, Berlin, Heidelberg, New York 1998, pp 231-236; • Ehmer PB, Bureik M, Bernhardt R, Muller U, Hartmann RW. "Development of a test system for inhibitors of human aldosterone synthase (CYP11B2): screening in fission yeast and evaluation of selectivity in V79 cells." J. Steroid Biochem Mol Biol. 2002; 81: 173-179.
(§2) Cells were cultured under standard conditions in DMEM/FK12 medium (Gibco, Gaitersburg, USA) supplemented with 10% foetal calf serum (Hyclone, Logan, USA), penicillin/streptomycin (100 U/ml and 100 µg/ml, respectively Gibco). Cell culturing and incubation experiments (see below) with the cells were performed at 37°C in a humid environment and 5%CO2 atmosphere.
(§3) Next, cells were incubated for 1 hour in serum free medium with cumulative inhibitor concentrations. […] After these incubation times, medium was collected for steroid analysis by HPLC. To extract the (produced) steroids from the medium, 1 ml aliquots of medium were mixed with 1 ml 1 M sodium-glycine buffer (pH 10.5) containing 500 nM methylprednisolone (Sigma-Aldrich) as internal standard and 5 ml of diethylether (Biosolve, Valkenswaard, the Netherlands). After shaking for 3 minutes, the samples were briefly centrifuged and the organic phase (containing the steroids) transferred into another tube and blown to dryness under a stream of nitrogen. The dried extracts were dissolved in 100 µl of mobile phase to be used for automated HPLC analysis. The HPLC system comprised a MR column (4.6 x 50 mm, particle size 2.5 µm; Shimadzu, Tokyo, Japan) as a stationary phase and a mixture of 680/320/1 (v/v/v) milliQ water, acetonitrile and trifluoro-acetic acid as mobile phase at a flow rate of 1.0 ml/minute. Steroids were detected by UV absorption at 243 nm (Shimadzu, Tokyo, Japan). To quantitate the steroids, peak area ratios versus the internal standard (methylprednisolone) were determined and compared with calibration curves.
(§4) Determination of IC50 values (potencies) was based on at least 5 inhibitor concentrations and was derived from the generic equation for enzyme inhibition at fixed substrate concentration vi = v0/(1 + I/IC50) with vi and v0 being the reaction velocities in the presence or absence of inhibitor respectively, and I being the inhibitor concentration (Cornish-Bowden A, "Analysis of enzyme kinetic data.", Oxford University Press, Oxford, 1995). All analyses were conducted at least in duplicate. […]

A further experiment concerns the target T2, human CYP11B1 (Homo sapiens, UniProt P15538).
T2 construct: The full length cDNA for human CYP11B1 was obtained by PCR from human adrenal cDNA; expressed in transfected cells; host or cells: V79 Chinese hamster cells, stably transfected with pcDNA3.1 (hygromycin resistance)
T2 sequence (P15538 25-503): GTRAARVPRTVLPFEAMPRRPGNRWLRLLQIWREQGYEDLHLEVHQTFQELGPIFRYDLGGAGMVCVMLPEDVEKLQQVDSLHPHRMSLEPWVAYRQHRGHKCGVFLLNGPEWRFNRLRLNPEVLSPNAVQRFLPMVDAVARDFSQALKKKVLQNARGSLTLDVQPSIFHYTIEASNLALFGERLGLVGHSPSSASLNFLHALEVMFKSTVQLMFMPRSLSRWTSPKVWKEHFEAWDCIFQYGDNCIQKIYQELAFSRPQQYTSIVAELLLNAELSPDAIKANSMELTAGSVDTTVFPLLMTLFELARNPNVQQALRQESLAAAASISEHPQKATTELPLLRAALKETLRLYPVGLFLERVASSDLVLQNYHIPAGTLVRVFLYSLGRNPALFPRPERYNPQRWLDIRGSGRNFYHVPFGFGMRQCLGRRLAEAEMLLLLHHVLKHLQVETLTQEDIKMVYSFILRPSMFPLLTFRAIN
In words: Inhibitor potency for human CYP11B1 in V79 cells expressing the enzyme (HPLC steroid analysis). The conditions noted are these: V79 cells (over)expressing human CYP11B1; 1 hour with inhibitor, then 11-deoxycorticosterone 500 nM for another hour; read-out: IC50 11B1. The class given is cell-based. Here is the method:
as §1
The human CYP11B1 (over)expressing V79 cells (stably transfected with a pcDNA3.1 vector, carrying a hygromycin resistance box) were constructed at Organon (Newhouse, UK) in the following manner. The full length cDNA for human CYP11B1 was obtained by PCR from human adrenal cDNA as described by Kawamoto et al ("Cloning of cDNA and genomic DNA for human cytochrome P-45011 beta" FEBS Lett 1990;269:345-9) and cloned into pPCR SCRIPT (Stratagene, La Jolla, USA). After digestion with Xho I and Not I, the obtained cDNA was inserted into a Xho I/Not I digested pcDNA3.1 vector (InVitrogen, Breda, Netherlands), carrying a hygromycin resistance box. Following transfection to the V79 cells, positive cells were selected based on their hygromycin resistance. The presence of the CYP11B1 gene was confirmed by PCR and the presence of 11β-hydroxylase activity (i.e. the ability to produce corticosterone or cortisol from 11-deoxycorticosterone or 11-deoxycortisol respectively). […] In normal (non transfected) V79 cells, no detectable 11β-hydroxylase activity or PCR signals were found.
as §2, §3, §4

As a reminder, the IC50 is the concentration needed to halve the response being measured. Turning to `OCCCc1cncn1Cc1ccc(F)cc1` [Compound 15, 3-[1-(4-Fluorobenzyl)-1H-imidazol-5-yl]propanol], the Ratio at human CYP11B2 was 6.9. For the same compound, the IC50 is 0.0168 µM at human CYP11B2 and 0.116 µM at human CYP11B1.
For `Cc1cncn1Cc1ccc(C#N)cc1` [Compound 42, 4-[(5-Methyl-1H-imidazol-1-yl)methyl]benzonitrile] the same measures were 11.4, 0.0123 µM and 0.14 µM.
For `COC(=O)CCc1cncn1Cc1ccc(Br)cc1` [Compound 20, Methyl 3-[1-(4-bromobenzyl)-1H-imidazol-5-yl]propanoate] the same measures were 14.4, 0.004 µM and 0.0574 µM.
With `COC(=O)c1cncn1Cc1ccc(C#N)cc1` [Compound 45, Methyl 1-(4-cyanobenzyl)-1H-imidazole-5-carboxylate], on human CYP11B2, the Ratio is 6.7 and the IC50 was 0.0071 µM. Also, on human CYP11B1, the IC50 worked out at 0.0478 µM.
For the compound `N#Cc1ccc(Cn2cncc2-c2ccccc2)cc1` [Compound 43, 4-[(5-Phenyl-1H-imidazol-1-yl)methyl]benzonitrile], at human CYP11B2, the Ratio is recorded as 15.7 and the IC50 was determined as 0.0017 µM. Moreover, at human CYP11B1, the IC50 is 0.0275 µM.
For `O=[N+]([O-])c1ccc(Cn2cncc2-c2ccccc2)cc1` [Compound 50, 1-(4-Nitrobenzyl)-5-phenyl-1H-imidazole] the same measures were 5.9, 0.0023 µM and 0.0137 µM.
For `N#Cc1ccc(Cn2cncc2CO)cc1` [Compound 52, 1-(4-cyanobenzyl)-5-hydroxymethyl-1H-imidazole] the same measures were 10, 0.0285 µM and 0.285 µM.
For `COC(=O)CCc1cncn1Cc1ccc(C#N)cc1` [Compound 18, Methyl 3-[1-(4-cyanobenzyl)-1H-imidazol-5-yl]propanoate] the same measures were 8.9, 0.0035 µM and 0.0311 µM.
As to `Cc1ccccc1-c1cncn1Cc1ccc(C#N)cc1` [Compound 57, 4-[(5-(2-Methylphenyl)-1H-imidazol-1-yl)methyl]benzonitrile], at human CYP11B2, the Ratio worked out at 10.5. Moreover, the IC50 at human CYP11B2 came out at 0.0007 µM; at human CYP11B1, 0.0076 µM.
For `N#Cc1ccc(Cn2cncc2-c2cccc(F)c2)cc1` [Compound 58, 4-[(5-(3-Fluorophenyl)-1H-imidazol-1-yl)methyl]benzonitrile] the same measures were 5.8, 0.0055 µM and 0.0318 µM.
For `N#Cc1ccc(Cn2cncc2C=O)cc1` [Compound 44, 4-[(5-Formyl-1H-imidazol-1-yl)methyl]benzonitrile] the same measures were 7.7, 0.0618 µM and 0.478 µM.

For the origin of these results see patent publication EP2095819A1, “N-benzyl imidazole derivatives and their use as aldosterone synthase inhibitors” (Maastricht University, priority 2008, dated 2009).
